In EP3722295A1, “ANTI-VIRAL AND ANTI-CANCER ACTIVITY OF PYRIDO[2,3-D]PYRIMIDINE AND OXADIAZIOLE COMPOUNDS” (priority 2019, dated 2020):
Where two headings read alike, the source gives them in different places.

Legend:
WSN virus = test: Production of infectious particles in A549 cells, plaque assay; assay type: cell-based, influenza A/WSN/33; conditions: 60 µM
WSN-PB2-Nanoluc virus = assay type: cell-based, influenza A/WSN/33
viral NS1 mRNA = test: NS1 mRNA splicing, quantitative real-time PCR; assay type: cell-based, influenza A/WSN/33; conditions: WSN-infected A549 cells, 60 µM, 6 h incubation
Description: (§1) Total RNA and poly(A)+ RNAs were extracted subsequently using the RNeasy Mini Kit (Qiagen) and Oligotex mRNA Mini kit (Qiagen), following the manufacturer's protocol. Reverse transcription (RT) was performed on 5-10 ng of total mRNA (or poly(A)+ RNA equivalent) using the Maxima First Strand cDNA Synthesis Kit (Thermo Scientific). Quantitative real-time PCR was performed on 2 µl of a 1/10 dilution of the RT reaction using the Luminaris Color Probe qPCR Master Mix (Thermo Scientific) and a Light Cycler 480 (Roche). The levels of NS1/NS2 and M1/M2 mRNAs were determined and normalized with respect to GAPDH mRNA levels using the protocol described in (23). The levels of PB2/PB2-S1 mRNAs were determined by semi-quantitative RT-PCR as described in (35).

RSV-Firefly virus = test: RSV-Firefly replication assay (specificity control); assay type: cell-based, human Respiratory Syncytial Virus
viral M1 mRNAs = test: M1 mRNA splicing, RT-qPCR; assay type: cell-based, influenza A/WSN/33; conditions: WSN-infected A549 cells, 60 µM
Description: as §1

RED-SMU1 complex = RED-SMU1 complex (Homo sapiens, UniProt Q2TAY7); test: In cellulo split luciferase-based RED-SMU1 interaction assay; assay type: cell-based; conditions: for inhibition at 60 µM: A549 cells, relative to DMSO
A549 cells = test: Cell viability assay (CellTiter-Glo, ATP levels) and observation of cell monolayers; assay type: cell-based, human
Description: Cell viability was assessed using the CellTiter-Glo® One Solution Assay kit (Promega) according to the manufacturer's instruction.

[1] = molecular target: T1, endogenous RED-SMU1 complex (Homo sapiens, UniProt Q2TAY7); test: Western blot of steady-state levels of endogenous RED and SMU1 proteins; assay type: cell-based
T1 construct: Effect on the steady-state levels of the endogenous RED and SMU1 proteins; endogenous in cells; host or cells: A549

FOS:JUN = molecular target: T2, FOS:JUN (Homo sapiens, UniProt P01100+P05412); test: FOS:JUN split luciferase interaction assay (specificity control); assay type: cell-based
T2 construct: expressed in transfected cells
T2 sequence (P01100 whole entry): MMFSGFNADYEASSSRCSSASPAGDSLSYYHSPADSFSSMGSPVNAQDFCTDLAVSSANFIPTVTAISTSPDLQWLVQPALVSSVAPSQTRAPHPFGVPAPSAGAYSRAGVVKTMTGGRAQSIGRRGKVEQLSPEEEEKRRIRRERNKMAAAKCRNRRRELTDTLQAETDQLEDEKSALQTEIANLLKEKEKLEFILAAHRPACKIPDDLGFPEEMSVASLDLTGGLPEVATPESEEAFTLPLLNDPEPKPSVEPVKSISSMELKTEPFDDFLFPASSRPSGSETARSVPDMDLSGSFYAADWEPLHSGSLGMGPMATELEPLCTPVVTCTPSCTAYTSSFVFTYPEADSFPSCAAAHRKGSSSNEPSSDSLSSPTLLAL
T2 sequence (P05412 whole entry): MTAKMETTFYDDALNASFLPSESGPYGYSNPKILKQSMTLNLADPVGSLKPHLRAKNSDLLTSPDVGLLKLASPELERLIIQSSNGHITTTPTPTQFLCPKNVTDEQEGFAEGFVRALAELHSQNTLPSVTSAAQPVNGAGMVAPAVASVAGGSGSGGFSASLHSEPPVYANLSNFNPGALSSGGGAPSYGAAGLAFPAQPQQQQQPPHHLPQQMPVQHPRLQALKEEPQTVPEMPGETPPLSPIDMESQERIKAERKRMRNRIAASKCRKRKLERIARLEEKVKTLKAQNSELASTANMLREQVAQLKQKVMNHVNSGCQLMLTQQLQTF

PB2 mRNA = PB2 mRNA splicing, semi-quantitative RT-PCR; assay type: cell-based, influenza A/WSN/33; conditions: WSN-infected A549 cells, 60 µM
Description: as §1

Row | Structure (SMILES) | reduction of production of WSN infectious particles (WSN virus; 24 hpi) | reduction of production of WSN infectious particles (WSN virus; 48 hpi) [fold] | reduction of production of WSN infectious particles (WSN virus; 72 hpi) [fold] | reduction of WSN-Nanoluc signals (WSN-PB2-Nanoluc virus) [fold] | reduction of NS2 to NS1 mRNA ratio (viral NS1 mRNA) [%] | RSV-Firefly signals (RSV-Firefly virus) | splicing of the viral M1 mRNAs (viral M1 mRNAs) | EC50 (RED-SMU1 complex) [µM] | inhibition at 60 µM (RED-SMU1 complex) [%] | growth of the tumoral cell line A549 (A549 cells) | cytotoxicity / cytostatic effect (A549 cells; A549 cells, 15, 30 and 60 µM, 24 and 48 hours of incubation) | logP (physchem) | Expression levels of RED and SMU1 proteins [1] | effect in FOS:JUN interaction assay (FOS:JUN) | PB2 mRNA splicing (PB2 mRNA) | RSV-Firefly signals (RSV-Firefly virus; A549 cells, 7.5 - 60 µM, 24 hpi) | effect in FOS:JUN interaction assay (FOS:JUN; specificity control, same concentrations as RED-SMU1 assay) | inhibition of viral growth (WSN-PB2-Nanoluc virus)
1 | C#CCCCNc1ncc2cc(-c3cc(OC)cc(OC)c3)c(NC(=O)NC(C)(C)C)nc2n1 [LSP61] | about 1000 fold | ~100 | ~10 | 25 | 50 | only moderate reductions | did not inhibit | ~15 | 90 | inhibits the growth | no cytotoxicity but some cytostatic effect | 4.8 | decreased | none of the two compounds showed any significant effect | not affected | – | – | –
2 | COc1cc(OC)cc(-c2cc3cnc(NCc4cn(C5CCN(Cc6ccccc6)CC5)nn4)nc3nc2NC(=O)NC(C)(C)C)c1 [LSP641] | – | – | – | – | 30 | – | did not inhibit | – | 40 | – | – | – | – | – | not affected | only moderate reductions | none of the two compounds showed any significant effect | –
3 | CCN(CC)CCCCNc1ncc2cc(-c3cc(OC)cc(OC)c3)c(NC(=O)NC(C)(C)C)nc2n1 [PD173074, reference compound] | – | – | – | – | – | – | – | – | – | – | – | – | – | – | – | – | – | did not inhibit viral growth as efficiently as LSP61
